Source: the NIST ThermoML archive (doi:10.1016/j.jct.2012.11.004)
± gives the expanded uncertainty stated by the source.

Tests used:
[1] = mn = molality of the nth substance listed, in mol/kg; conditions: 101 kPa, Liquid, Vibrating tube method, m2 = 0
[2] = 101 kPa, Liquid, Vibrating tube method

Row | Compound | mass density ([1]; 283.15 K) [kg/m3] | mass density ([1]; 293.15 K) [kg/m3] | mass density ([1]; 298.15 K) [kg/m3] | mass density ([1]; 303.15 K) [kg/m3] | mass density ([1]; 313.15 K) [kg/m3] | mass density ([1]; 323.15 K) [kg/m3] | mass density ([1]; 333.15 K) [kg/m3] | mass density ([2]; 283.15 K) [kg/m3] | mass density ([2]; 293.15 K) [kg/m3] | mass density ([2]; 298.15 K) [kg/m3] | mass density ([2]; 303.15 K) [kg/m3] | mass density ([2]; 313.15 K) [kg/m3] | mass density ([2]; 323.15 K) [kg/m3] | mass density ([2]; 333.15 K) [kg/m3]
1 | CC(=O)N(C)C [N,N-dimethylethanamide] + O=S(=O)([O-])C(F)(F)F.[Na+] | 950.04 ± 0.3 | 940.83 ± 0.3 | 936.22 ± 0.3 | 931.61 ± 0.3 | 922.35 ± 0.3 | 913.08 ± 0.3 | 903.76 ± 0.3 | – | – | – | – | – | – | –
2 | CN(C)C=O [dimethylformamide] + O=S(=O)([O-])C(F)(F)F.[Na+] | 958.07 ± 0.3 | 948.56 ± 0.3 | 943.79 ± 0.31 | 939.01 ± 0.31 | 929.43 ± 0.31 | 919.81 ± 0.31 | 910.11 ± 0.31 | – | – | – | – | – | – | –
3 | CN(C)C=O [dimethylformamide] | – | – | – | – | – | – | – | 958.07 ± 0.3 | 948.56 ± 0.3 | 943.79 ± 0.31 | 939.01 ± 0.31 | 929.43 ± 0.31 | 919.81 ± 0.31 | 910.11 ± 0.31
4 | CC(=O)N(C)C [N,N-dimethylethanamide] | – | – | – | – | – | – | – | 950.04 ± 0.3 | 940.83 ± 0.3 | 936.22 ± 0.3 | 931.61 ± 0.3 | 922.35 ± 0.3 | 913.08 ± 0.3 | 903.76 ± 0.3
